In PubChem BioAssay (NCI):
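Step 1: Grow cells in 96-well plates. Step 2: Expose to compound for 48 hours at 5 concentrations. Step 3: Interpolate endpoints linearly; if unreached, use highest concentration. Here, GI50 denotes the concentration required for 50% inhibition of growth. TGI denotes the concentration required for complete inhibition of growth.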

Tests used:
Experiment in all cases: NCI tumour cell line growth inhibition, 48 h
MDA-N = test system: MDA-N
M19-MEL melanoma = test system: M19-MEL melanoma
RXF-631 renal = test system: RXF-631 renal
DMS 273 small cell lung = test system: DMS 273 small cell lung
SNB-78 CNS = test system: SNB-78 CNS
XF 498 CNS = test system: XF 498 CNS
LXFL 529 NSCLC = test system: LXFL 529 NSCLC
HOP-18 NSCLC = test system: HOP-18 NSCLC
DMS 114 small cell lung = test system: DMS 114 small cell lung
SN12K1 renal = test system: SN12K1 renal
P388 leukemia = test system: P388 leukemia
P388/ADR leukemia = test system: P388/ADR leukemia

Compound | TGI (MDA-N) | TGI (M19-MEL melanoma) | TGI (RXF-631 renal) | TGI (DMS 273 small cell lung) | TGI (SNB-78 CNS) | TGI (XF 498 CNS) | TGI (LXFL 529 NSCLC) | TGI (HOP-18 NSCLC) | TGI (DMS 114 small cell lung) | other results
COc1cc(/C=C/c2ccnc3ccccc23)cc(OC)c1OC | 1.74 µM | – | – | – | – | – | – | – | – | –
O=C(O)c1[nH]c2c([N+](=O)[O-])cc([N+](=O)[O-])cc2c1C(=O)O | 92.9 µM | – | – | – | – | – | – | – | – | –
CNC(=O)NCCN1N=C(C)/C(=C\c2ccccc2)CC1=O | – | > 100 µM | > 100 µM | > 100 µM | > 100 µM | > 100 µM | > 100 µM | – | – | –
c1ccc2c(c1)[nH]c1c3ccccc3sc21 | > 100 µM | – | – | – | – | – | – | – | – | –
CC(=N/NC(N)=S)/C(C)=N/NC(N)=S | > 100 µM | – | – | – | – | – | – | – | – | –
CCc1cccc(NC(=O)c2cc(/C=C/c3ccccc3)[nH]c(=S)n2)c1 | – | > 100 µM | – | > 100 µM | > 100 µM | – | > 100 µM | > 100 µM | > 100 µM | –
CC(=N\O)/C(C)=N/O.CC(=N\O)/C(C)=N/O.[Fe].[NH2-].c1c[nH]cn1 | > 100 µM | – | – | – | – | – | – | – | – | GI50 (MDA-N): > 100 µM
O=C(O)c1cc(Cl)cc(Cc2cc(Cl)cc(C(=O)O)c2O)c1O | > 100 µM | – | – | – | – | – | – | – | – | –
CCc1ccccc1NC(=O)C(=O)C(C#N)c1c(Cl)cccc1Cl (stereo unspecified) | – | > 100 µM | > 100 µM | > 100 µM | > 100 µM | > 100 µM | > 100 µM | – | – | –
Oc1cc(O)c2c(c1)OC(c1ccc(O)c(O)c1)C(O)C2c1c(O)cc(O)c2c1OC(c1ccc(O)c(O)c1)C(O)C2 (stereo unspecified) | > 100 µM | – | – | – | – | – | – | – | – | –
CC(C)(C)OC1=C(OC(C)(C)C)C(O)(c2ccc(Cl)cc2)C1=O (stereo unspecified) | – | > 100 µM | > 100 µM | > 100 µM | > 100 µM | – | > 100 µM | > 100 µM | > 100 µM | –
CCOC(=O)CCn1cnc(N)n1 | – | > 100 µM | > 100 µM | > 100 µM | > 100 µM | > 100 µM | > 100 µM | > 100 µM | > 100 µM | –
O=C1CCc2ccc(O)c(c2)Oc2ccc(cc2)[C@@H]2O[C@@H]2CO1 | – | > 100 µM | – | – | – | 30.6 µM | > 100 µM | 80.7 µM | 67 µM | –
COc1ccc(C(Nc2ccccn2)c2cc(C(C)(C)C)cc(C(C)(C)C)c2O)cc1 (stereo unspecified) | > 100 µM | – | – | – | – | – | – | – | – | –
Cc1cn(C2CC(O)C(COC(N)=O)O2)c(=O)[nH]c1=O (stereo unspecified) | > 100 µM | – | – | – | – | – | – | – | – | –
N#CC1=C(c2ccccc2)OC2(N)OC(c3ccccc3)=C(C#N)C12C#N (stereo unspecified) | – | > 100 µM | > 100 µM | > 100 µM | > 100 µM | > 100 µM | > 100 µM | 75.1 µM | > 100 µM | –
CC[P+]1(c2ccccc2)CCCCC1 | – | > 100 µM | > 100 µM | > 100 µM | > 100 µM | – | > 100 µM | > 100 µM | > 100 µM | –
Cc1ccc(NC(=O)CCC(=O)C2Cc3ccccc3C2=O)cc1C (stereo unspecified) | – | > 100 µM | – | > 100 µM | > 100 µM | > 100 µM | > 100 µM | > 100 µM | > 100 µM | –
O=C(Nc1cc2cc([N+](=O)[O-])ccc2oc1=O)c1cccs1 | > 100 µM | – | – | – | – | – | – | – | – | –
CCC(C)C(=O)OC1CCC=C2C=CC(C)C(CCC3CC(O)CC(=O)O3)C21 (stereo unspecified) | > 100 µM | – | – | – | – | – | – | – | – | –
NC(=O)c1ncn2c(=O)n(CCCl)nnc12 | 338 µM | 376 µM | – | 275 µM | 527 µM | 149 µM | – | 1130 µM | 131 µM | TGI (SN12K1 renal): 266 µM; TGI (P388 leukemia): 482 µM; TGI (P388/ADR leukemia): 335 µM
CN(C)CCNC(=O)c1cccc2c1nc(-c1ccncc1)c1ccccc12 | – | 11.9 µM | – | 12.3 µM | 23.2 µM | – | – | 51.1 µM | 14.2 µM | –
CSc1cc(C(C)(C)C)ccc1C(O)c1ccc(C(C)(C)C)cc1SC | – | 23.5 µM | – | 26.9 µM | 40.3 µM | 23.6 µM | 32.5 µM | 34 µM | 22.5 µM | –
NS(=O)(=O)c1cc(C(=O)O)c(Cl)c([N+](=O)[O-])c1Cl | > 100 µM | – | – | – | – | – | – | – | – | –
CC(=O)[CH-]C(=O)c1ccccc1.CC(=O)[CH-]C(=O)c1ccccc1.CC(=O)[CH-]C(=O)c1ccccc1.[Br-].[Zr+4] | – | > 100 µM | – | – | – | – | > 100 µM | – | – | GI50 (M19-MEL melanoma): 85.8 µM; GI50 (LXFL 529 NSCLC): 70.7 µM
O=C1c2ccccc2C(=O)c2sc(Nc3ccc([N+](=O)[O-])cc3)nc21 | 3.49 µM | 3 µM | > 55.1 µM | 14.6 µM | 42 µM | 4.18 µM | 3.06 µM | 9.03 µM | 6.32 µM | –
N#CCC(=O)Nc1ccccc1O | – | > 100 µM | > 100 µM | > 100 µM | > 100 µM | > 100 µM | > 100 µM | > 100 µM | – | –
CCN(CC)CCCC(C)Nc1ccnc(/C=C/c2ccc(Cl)cc2)c1 (stereo unspecified) | 3.62 µM | – | – | – | – | – | – | – | – | –
N#CC(C#N)=C1CCC2C(=C(C#N)C#N)CCC12 (stereo unspecified) | – | > 100 µM | > 100 µM | > 100 µM | > 100 µM | > 100 µM | > 100 µM | – | > 100 µM | –
FC(F)(F)c1nc(Br)[nH]c1C(F)(F)F | – | > 100 µM | > 100 µM | > 100 µM | > 100 µM | > 100 µM | > 100 µM | 93.2 µM | > 100 µM | –
